# Reference: US10308640B2, “1,3-dihydroimidazole-2-thione derivatives for use in the treatment of pulmonary arterial hypertension and lung injury” (BIAL—PORTELA & CA S.A., priority 2012, dated 2019)
# How the values were obtained:
# [1] = system: Monocrotaline (MCT) lung injury model of Pulmonary Arterial Hypertension; assay: Cardiac remodelling (organ weight ratios, Fulton index) in the MCT lung injury model of PAH; assay type: in vivo, rat; settings: compared to MCT group; for right ventricular hypertrophy: 28 days
# Description: (§1) One of the most-used animal models is the Monocrotaline (MCT) lung injury model of Pulmonary Arterial Hypertension. Administration of MCT, that is metabolized in the liver to the reactive metabolite dehydromonocrotaline, results in a syndrome characterized by acute lung injury, interstitial pulmonary fibrosis, necrotizing pulmonary arteritis, pulmonary hypertension, right ventricular (RV) hypertrophy, myocarditis and hepatic venoocclusive disease.
# (§2) The protocol to use is a standard one (Curr. Protoc. Pharmacol. 46:5.56.1-5.56.11(2009) John Wiley & Sons Inc). Rats, of 6-7 weeks old (150-200 g) are administered MCT 60 mg/kg subcutaneously, and the pathology usually develops in the course of initial 3 to 4 weeks with the animals dying within the next 2 weeks (5th-6th week). A decrease of 50% in food and water consumption is thought to be indicative of pathological status severe enough for testing.
# (§3) The experimental details are described in more detail below; briefly, compounds were given to rats mixed with food starting, Compound B (30 mg/kg/day) for groups MCT+Compound B and SHAM+Compound B, bosentan (300 mg/kg/day) for group MCT+Bos300, bosentan (100 mg/kg/day) for group MCT+Bos100, Compound B+bosentan (30+100 mg/kg/day) for group MCT+Compound B+Bos100, and no compound for groups MCT and SHAM. Animals from groups MCT were administered MCT and animals from groups SHAM were administered vehicle. Twenty eight days later, surviving animals were sacrificed, tissues collected and weighed. During the entire experimental period food, water consumption and animal weight were monitored. The ratios organ weight to body weight (BW) were calculated to evaluate organ hypertrophy. The index of RV/LV+S was calculated as an index of RV hypertrophy. In each study an n=10 animals was used for each MCT treatment group, and an n=6 was used for the groups not given MCT. The animals from MCT+Bos300 group from Study 1 were not considered for the combined survival analysis since these unexpectedly presented a higher mortality effect as compared to the MCT group. The surviving animals from this group were nevertheless considered for the cardiac remodelling analysis.
# All data is expressed as mean±sem (Standard Error of the Mean) unless otherwise indicated. Differences between treatment groups were analysed by one-way ANOVA and post-hoc Newman-Keuls multiple comparison test. P<0.05 was considered statistically significant.
# On day 28 surviving animals were sacrificed and the following tissues/organs collected and weighed: liver, kidney, lung, heart and spleen. Femurs were removed and measured. Heart was dissected into right ventricle, left ventricle+septum and these were also weighed. The ratio organ to body weight (BW) was calculated as well as the ratio organ weight to femur length. The index of RV/LV+S is an index of RV hypertrophy. Catecholamines were evaluated only on right ventricle and left ventricle+septum.
# Whole spleen, whole liver, left kidney and lungs were removed, cleaned and weighed. Heart was removed, cleaned from atria and vascular tissue and weighed. Right ventricle was then dissected from the rest of the heart (left ventricle +septum) and both were weighed and put in tubes containing 0.2 M PCA. Femurs were removed, cleaned and length measured with a calliper.
# The ratios organ weight to body weight and organ weight to femur length were calculated as well as the ratio right ventricular weight to left ventricular+septum weight.
# Organs weighed were: liver, kidney, lung, heart and spleen. Heart was dissected into right ventricle, left ventricle+septum and these were also weighed. The ratio organ to body weight (BW) was calculated as well as the ratio organ weight to femur length. The index of RV/LV+S is an index of RV hypertrophy.
# Whole spleen, whole liver, both kidneys and lungs were removed, cleaned and weighed. Heart was removed, cleaned from atria and vascular tissue and weighed. […]
# [2] = system: Monocrotaline (MCT) lung injury model of Pulmonary Arterial Hypertension; assay: Survival in the Monocrotaline (MCT) lung injury model of Pulmonary Arterial Hypertension (Kaplan-Meier curves, 28 days); assay type: in vivo, rat; settings: MCT rats; for survival (survival curve): compared to MCT group
# Description: as §1, §2
# Two studies were conducted separately and a combination analysis performed on the two studies. Each study consisted in the scheme represented in FIG. 1.
# The experimental design of both studies was the same, with animals randomized in seven groups, five groups of 10 animals each (MCT, MCT+Bos300, MCT+Bos100, MCT+Compound B, MCT+Compound B+Bos100) and 2 groups of 6 animals each (SHAM and SHAM+Compound B).
# as §3, with “In each study an n=10 animals was used for each MCT treatment group, and an n=6 was used for the groups not given MCT. The animals from MCT+Bos300 group from Study 1 were not considered for the combined survival analysis since these unexpectedly presented a higher mortality effect as compared to the MCT group. The surviving animals from this group were nevertheless considered for the cardiac remodelling analysis.” left out
# Animals were given powdered food for an adaptation period of 3-5 days before treatment start. […] Food, water consumption and animal weight were monitored over the entire duration of the experiment.
# Animals were given powdered food for an adaptation period of 3-5 days before treatment start. […] Animal weight, food and water consumption were evaluated twice a week and animals were regularly observed for any disease signs. Mortality was registered and on day 28 surviving animals were sacrificed, selected organs weighed and femurs removed and measured. […]
# [3] = Compound B alone 30 mg/kg/day, 28 days after MCT
# [4] = Bosentan 300 mg/kg/day, 28 days after MCT
compound,measurement,setting,value
"Fc1cc(F)c2c(c1)C[C@@H](n1c(CCNCc3ccccc3)c[nH]c1=S)CO2 [Compound B, (R)-5-(2-(benzylamino)ethyl)-1-(6,8-difluorochroman-3-yl)-1H-imidazole-2(3H)-thione]",right ventricular hypertrophy,[1]; Compound B 30 mg/kg/day,significant decreased
same,Fulton Index (RV/LV+S),[1]; [3],significantly decreased
same,heart weight over bodyweight (BW),[1]; [3],significantly decreased
same,right ventricle (RV) weight over bodyweight (BW),[1]; [3],significantly decreased
same,survival (survival curve),[2]; Compound B 30 mg/kg/day in food,slight increase in survival
same,survival rates compared to the use of bosentan alone,[2]; Compound B alone 30 mg/kg/day,greater survival rates
"COc1ccccc1Oc1c(NS(=O)(=O)c2ccc(C(C)(C)C)cc2)nc(-c2ncccn2)nc1OCCO [bosentan, Bosentan]",Fulton Index (RV/LV+S),[1]; [4],significantly decreased
same,right ventricle (RV) weight over bodyweight (BW),[1]; [4],significantly decreased
same,right ventricular hypertrophy,[1]; bosentan 100 mg/kg/day (MCT+Bos100),significant decreased
same,right ventricular hypertrophy,[1]; bosentan 300 mg/kg/day (MCT+Bos300),marked and statistically significant decrease
same,survival (survival curve),[2]; bosentan 100 mg/kg/day in food,No clear benefit
same,survival (survival curve),[2]; bosentan 300 mg/kg/day in food,No clear benefit
